Measured values: patent publication US20030013660A1, “Dioxolane analogs for improved inter-cellular delivery” (Shire BioChem Inc., priority 2000, published 2003)

Assays:
[1] = test system: CEM cells; assay: CellTiter 96 cell proliferation assay (chemosensitivity), 48 h; type: cell-based
Description: (§1) The chemosensitivity of suspension cells lines (e.g., CEM or CEM-derivatives) is assessed using the CellTiter 96 ? proliferation assay. […] Adherent cell lines (e.g., DU145 or DU145^R) are seeded (^˜10^5 cells) in triplicate dishes, 24 h before drug exposure. Growth inhibition is determined by trypsinization and counting cells electronically.

[2] = test system: CEM/ARAC8C cells; assay: as above; type: cell-based; details: read-out: EC50 (50% of the dose response curve); CEM/ARAC8C cells, 48 h exposure
Description: as §1

[3] = test system: CEM/dCK cells; assay: as above; type: cell-based; details: read-out: EC50 (50% of the dose response curve), 48 h exposure
Description: as §1

[4] = test system: CEM/ARAC8C cells; assay: Cellular uptake assay of [3H]nucleoside in nucleoside-transport deficient CEM/ARAC8C cells; type: in vitro ADME
Description: FIG. 1 Comparative uptake of 30 μM [^3H]-troxacitabine in CEM (Panel A) and CEM/ARAC8C (Panel B) cells. [^3H]-Uridine uptake in either the presence or absence of the hENT1 inhibitor, NBMPR or 5 mM non-radioactive uridine was included for comparison as a control substrate.

[5] = target: T1, hCNT3 (Homo sapiens, UniProt Q9HAS3); details: 100-fold non-radioactive troxacitabine, differentiated HL-60
T1 sequence (Q9HAS3 1-691): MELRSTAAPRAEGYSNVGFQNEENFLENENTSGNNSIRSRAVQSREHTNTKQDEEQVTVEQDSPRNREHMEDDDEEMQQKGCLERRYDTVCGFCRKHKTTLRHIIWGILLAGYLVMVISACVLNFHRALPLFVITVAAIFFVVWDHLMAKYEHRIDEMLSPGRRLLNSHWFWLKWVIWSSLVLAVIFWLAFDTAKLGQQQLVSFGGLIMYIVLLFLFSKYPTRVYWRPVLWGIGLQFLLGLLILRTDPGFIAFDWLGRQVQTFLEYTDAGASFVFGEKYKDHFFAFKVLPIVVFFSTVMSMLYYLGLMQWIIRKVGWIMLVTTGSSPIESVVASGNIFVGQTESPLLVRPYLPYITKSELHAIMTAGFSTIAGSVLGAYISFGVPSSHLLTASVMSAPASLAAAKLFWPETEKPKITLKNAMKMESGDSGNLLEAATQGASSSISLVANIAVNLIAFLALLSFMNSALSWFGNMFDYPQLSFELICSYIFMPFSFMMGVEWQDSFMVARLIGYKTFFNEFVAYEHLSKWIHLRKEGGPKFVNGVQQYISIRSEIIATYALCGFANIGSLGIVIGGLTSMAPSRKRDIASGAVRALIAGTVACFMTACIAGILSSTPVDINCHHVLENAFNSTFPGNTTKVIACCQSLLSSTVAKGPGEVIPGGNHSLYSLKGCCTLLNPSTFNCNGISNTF
Description: The ability of a high concentration (100-fold) of non-radioactive troxacitabine to inhibit the uptake of ^3H]uridine by hCNT3 was examined in a differentiated HL-60 model system [Ritzel et al. (2000), supra].

[6] = target: T2, hENT1 (Homo sapiens, UniProt Q99808); assay: Cellular uptake assay of [3H]nucleoside in DU145 cells, with or without NBMPR or excess non-radioactive troxacitabine; type: in vitro ADME; parameters: The presence of functional es-mediated transport (hENT1) in DU145 cells; endogenous in cells; host or cells: DU145 cells
T2 sequence (Q99808 1-456): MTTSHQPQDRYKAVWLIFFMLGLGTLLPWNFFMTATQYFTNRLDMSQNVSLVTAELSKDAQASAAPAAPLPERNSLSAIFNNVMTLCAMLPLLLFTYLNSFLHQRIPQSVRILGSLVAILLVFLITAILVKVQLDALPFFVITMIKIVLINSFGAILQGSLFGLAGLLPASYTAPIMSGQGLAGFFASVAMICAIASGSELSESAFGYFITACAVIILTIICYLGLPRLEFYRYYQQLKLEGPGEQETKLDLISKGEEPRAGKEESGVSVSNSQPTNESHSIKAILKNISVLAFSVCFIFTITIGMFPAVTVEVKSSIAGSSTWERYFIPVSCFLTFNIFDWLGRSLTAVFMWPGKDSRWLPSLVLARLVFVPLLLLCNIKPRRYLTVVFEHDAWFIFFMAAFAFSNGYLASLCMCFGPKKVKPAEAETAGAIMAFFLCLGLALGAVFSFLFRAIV
Description: Cancer Res., 56: 4187-4191.
This experiment is designed to show whether [^3H]L-troxacitabine (10 μM) is taken up by DU145 cells and if the rate of uptake is affected by the addition of high concentrations (1 mM) of non-radioactive troxacitabine.

In the case of `Nc1ccn([C@@H]2CO[C@H](CO)O2)c(=O)n1` [Troxacitabine, troxacitabine], the EC50 ([1]; Homo sapiens, CCRF-CEM, read-out: EC50 (50% of the dose response curve), CEM cells, 48 h exposure) is reported as 160 nM, the “effect of the es transport inhibitor NBMPR on resistance of CEM cells” value ([1]; presence of NBMPR) is reported as “not” and the EC50 [2] is reported as 1180 nM. For the same compound, the EC50 [3] was greater than 100000 nM, the “uptake of [3H]nucleoside over the 6-min time course” value [4] was “taken up to a lesser degree” and the “effect on [3H]uridine uptake by hCNT3” value [5] was “no effect on uridine uptake”. The “effect of NBMPR on uptake” value [6] was “not affected”, the “level of [3H] uptake” value [6] was “low levels” and the “effect of non-radioactive troxacitabine (1 mM) on uptake” value ([6]; 10 μM [3H]L-troxacitabine) was “no significant effect”. For the same compound, the rate of uptake ([6]; 10 μM, short (0-30s) and prolonged exposures (0-4 h)) was “very slow”.
